Measurements reported in patent publication US10851064B2, “ACSS2 inhibitors and methods of use thereof” (METABOMED LTD., priority 2017, dated 2020).

Target: ACSS2 (Homo sapiens, UniProt Q9NR19)
Experiment: biochemical
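Also: Cell-free human ACSS2 enzyme reaction with acetate, CoA and ATP, 90 min at 37 C, coupled to pyrophosphatase, phosphate release detected by Biomol Green absorbance at 620 nm.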

ACSS2, sequence (Q9NR19 whole entry): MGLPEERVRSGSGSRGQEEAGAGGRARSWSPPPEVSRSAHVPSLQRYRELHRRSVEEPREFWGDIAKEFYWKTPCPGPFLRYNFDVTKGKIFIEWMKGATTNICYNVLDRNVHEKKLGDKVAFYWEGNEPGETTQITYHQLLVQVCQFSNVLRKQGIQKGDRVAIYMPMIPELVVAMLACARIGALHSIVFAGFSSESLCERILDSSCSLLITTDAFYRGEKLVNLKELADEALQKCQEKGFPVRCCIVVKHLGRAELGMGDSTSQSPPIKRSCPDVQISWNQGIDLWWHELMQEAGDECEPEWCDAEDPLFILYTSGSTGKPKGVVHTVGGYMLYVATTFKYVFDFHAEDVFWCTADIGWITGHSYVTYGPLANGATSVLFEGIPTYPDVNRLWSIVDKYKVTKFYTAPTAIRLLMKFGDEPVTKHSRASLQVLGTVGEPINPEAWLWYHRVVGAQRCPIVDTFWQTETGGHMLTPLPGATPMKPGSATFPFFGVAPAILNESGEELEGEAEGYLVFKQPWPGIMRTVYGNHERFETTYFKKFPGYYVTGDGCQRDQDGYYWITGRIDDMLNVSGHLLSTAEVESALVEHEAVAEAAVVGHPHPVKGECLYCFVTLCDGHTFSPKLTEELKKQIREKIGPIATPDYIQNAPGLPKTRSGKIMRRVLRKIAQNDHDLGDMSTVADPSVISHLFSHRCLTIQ
Procedure: ACSS2 Cell-Free Activity Assay (Cell-Free IC50)
The assay is based on a coupling reaction with Pyrophosphatase: ACSS2 is converting ATP+CoA+Acetate=>AMP+pyrophosphate+Acetyl-CoA (Ac-CoA). Pyrophosphatase converts pyrophosphate, a product of the ACSS2 reaction, to phosphate which can be detected by measuring the absorbance at 620 nm after incubation with the Biomol green reagent (Enzo life Science, BML-AK111).
Cell-free IC50 Determination:
At the end of the reaction, Biomol Green was added for 30 minutes at RT and the activity was measured by reading the absorbance at 620 nm.

Compound | IC50 [µM]
N#Cc1ccc(OCCNC(=O)C(N)c2ccccc2)cc1 (stereo not shown) [compound 180] | > 100
Cc1c(C(=O)Nc2ccccc2)c(=O)n(-c2ccccc2)n1C [compound 190, 1,5-dimethyl-3-oxo-N,2-diphenyl-2,3-dihydro-1H-pyrazole-4-carboxamide] | > 100
CC1=NN(c2ccccn2)C(=O)C1C(=O)Nc1ccccc1 (stereo not shown) [compound 192, 5-hydroxy-3-methyl-N-phenyl-1-(pyridin-2-yl)-1H-pyrazole-4-carboxamide] | > 100
CC1=NN(c2ccncc2)C(=O)C1C(=O)Nc1ccccc1 (stereo not shown) [compound 193, 3-methyl-5-oxo-N-phenyl-1-(pyridin-4-yl)-4,5-dihydro-1H-pyrazole-4-carboxamide] | > 100
CC1=NN(c2cccnc2)C(=O)C1C(=O)Nc1ccccc1 (stereo not shown) [compound 195, 3-methyl-5-oxo-N-phenyl-1-(pyridin-3-yl)-4,5-dihydro-1H-pyrazole-4-carboxamide] | > 100
COc1ccc(N2N=C(C)C(C(=O)Nc3ccccc3)C2=O)cc1 (stereo not shown) [compound 197, 1-(4-methoxyphenyl)-3-methyl-5-oxo-N-phenyl-4,5-dihydro-1H-pyrazole-4-carboxamide] | 1 to 100
CC1=NN(c2ccc3ccccc3c2)C(=O)C1C(=O)Nc1ccccc1 (stereo not shown) [compound 198, 5-hydroxy-3-methyl-1-(naphthalen-2-yl)-N-phenyl-1H-pyrazole-4-carboxamide] | 1 to 100
CNC(=O)C1C(=O)N(c2ccccc2)N=C1C (stereo not shown) [compound 199, N,3-dimethyl-5-oxo-1-phenyl-4,5-dihydro-1H-pyrazole-4-carboxamide] | > 100
CC1=NN(c2ccccc2)C(=O)C1C(=O)NC(C)C (stereo not shown) [compound 200, N-isopropyl-3-methyl-5-oxo-1-phenyl-4,5-dihydro-1H-pyrazole-4-carboxamide] | > 100
CC1=NN(c2ccc(C(F)(F)F)cc2)C(=O)C1C(=O)Nc1ccccc1 (stereo not shown) [compound 201, 3-methyl-5-oxo-N-phenyl-1-(4-(trifluoromethyl)phenyl)-4,5-dihydro-1H-pyrazole-4-carboxamide] | 1 to 100
CC1=NN(C2CCS(=O)(=O)C2)C(=O)C1C(=O)Nc1ccccc1 (stereo not shown) [compound 202, 1-(1,1-dioxidotetrahydrothiophen-3-yl)-3-methyl-5-oxo-N-phenyl-4,5-dihydro-1H-pyrazole-4-carboxamide] | > 100
CC(=O)c1ccc(NC(=O)C2C(=O)N(c3ccccc3)N=C2C)cc1 (stereo not shown) [compound 203, N-(4-acetylphenyl)-3-methyl-5-oxo-1-phenyl-4,5-dihydro-1H-pyrazole-4-carboxamide] | 1 to 100
CC1=NN(c2ccccc2)C(=O)C1C(=O)N(C)c1ccccc1 (stereo not shown) [compound 204, N,3-dimethyl-5-oxo-N,1-diphenyl-4,5-dihydro-1H-pyrazole-4-carboxamide] | > 100
CC1=NN(c2ccccc2)C(=O)C1C(=O)Nc1ccc(O)cc1 (stereo not shown) [compound 205, N-(4-hydroxyphenyl)-3-methyl-5-oxo-1-phenyl-4,5-dihydro-1H-pyrazole-4-carboxamide] | 1 to 100
CC1=NN(c2ccccc2)C(=O)C1C(=O)NC(=O)c1ccccc1 (stereo not shown) [compound 207, N-benzoyl-3-methyl-5-oxo-1-phenyl-4,5-dihydro-1H-pyrazole-4-carboxamide] | 1 to 100
CC1=NN(c2ccccc2)C(=O)C1C(=O)Nc1cccc(C)c1 (stereo not shown) [compound 212, 3-methyl-5-oxo-1-phenyl-N-(m-tolyl)-4,5-dihydro-1H-pyrazole-4-carboxamide] | 1 to 100
CC1=NN(c2ccccc2)C(=O)C1C(=O)Nc1ccccn1 (stereo not shown) [compound 214, 3-methyl-5-oxo-1-phenyl-N-(pyridin-2-yl)-4,5-dihydro-1H-pyrazole-4-carboxamide] | > 100
CC1=NN(c2ccccc2)C(=O)C1C(=O)Nc1ccncc1 (stereo not shown) [compound 216, 3-methyl-5-oxo-1-phenyl-N-(pyridin-4-yl)-4,5-dihydro-1H-pyrazole-4-carboxamide] | 1 to 100
CC1=NN(c2ccccc2)C(=O)C1C(=O)Nc1nccs1 (stereo not shown) [compound 217, 3-methyl-5-oxo-1-phenyl-N-(thiazol-2-yl)-4,5-dihydro-1H-pyrazole-4-carboxamide] | > 100
CC1=NN(c2ccccc2)C(=O)C1C(=O)N[C@@H](C)C(=O)O (stereo partly drawn) [compound 218, (2S)-2-(3-methyl-5-oxo-1-phenyl-4,5-dihydro-1H-pyrazole-4-carboxamido)propanoic acid] | 1 to 100
CC1=NN(C2CCN(C)CC2)C(=O)C1C(=O)Nc1ccccc1 (stereo not shown) [compound 221, 3-methyl-1-(1-methylpiperidin-4-yl)-5-oxo-N-phenyl-4,5-dihydro-1H-pyrazole-4-carboxamide] | > 100
CC1=NN(c2ccccc2)C(=O)C1C(=O)Nc1cccc(O)c1 (stereo not shown) [compound 222, N-(3-hydroxyphenyl)-3-methyl-5-oxo-1-phenyl-4,5-dihydro-1H-pyrazole-4-carboxamide] | 1 to 100
CC1=NN(c2ccccc2)C(=O)C1C(=O)Nc1cccc(CN)c1 (stereo not shown) [compound 223, N-(3-(aminomethyl)phenyl)-3-methyl-5-oxo-1-phenyl-4,5-dihydro-1H-pyrazole-4-carboxamide] | 1 to 100
CCc1cccc(NC(=O)c2c(C)nn(-c3ccc(NC)cc3)c2OC(=O)N(C)C)c1 [compound 224, 4-((3-ethylphenyl)carbamoyl)-3-methyl-1-(4-(methylamino)phenyl)-1H-pyrazol-5-yl dimethylcarbamate] | 1 to 100

More lines, now with the values ahead:

IC50 [µM] | Compound
0.1 to 1 | CCc1cccc(NC(=O)C2C(=O)N(c3ccc(N)cc3)N=C2C)c1 (stereo not shown) [compound 154, 1-(4-aminophenyl)-N-(3-ethylphenyl)-3-methyl-5-oxo-4,5-dihydro-1H-pyrazole-4-carboxamide]
0.1 to 1 | CCc1cccc(NC(=O)C2C(=O)N(c3ccc(NC(=O)N(C)C)cc3)N=C2C)c1 (stereo not shown) [compound 155, 1-(4-(3,3-dimethylureido)phenyl)-N-(3-ethylphenyl)-3-methyl-5-oxo-4,5-dihydro-1H-pyrazole-4-carboxamide]
1 to 100 | CCc1cccc(NC(=O)C2C(=O)N(c3ccccc3)N=C2c2ccccn2)c1 (stereo not shown) [compound 156, N-(3-ethylphenyl)-5-oxo-1-phenyl-3-(pyridin-2-yl)-4,5-dihydro-1H-pyrazole-4-carboxamide]
0.006 to 0.1 | CCCOc1ccc(N2N=C(C)C(C(=O)Nc3cccc(CC)c3)C2=O)cc1 (stereo not shown) [compound 158, N-(3-ethylphenyl)-3-methyl-5-oxo-1-(4-propoxyphenyl)-4,5-dihydro-1H-pyrazole-4-carboxamide]
0.006 to 0.1 | CC1=NN(c2ccc(S(=O)(=O)N(C)C)cc2)C(=O)C1C(=O)Nc1cccc(-c2ccco2)c1 (stereo not shown) [compound 160, 1-(4-(N,N-dimethylsulfamoyl)phenyl)-N-(3-(furan-2-yl)phenyl)-3-methyl-5-oxo-4,5-dihydro-1H-pyrazole-4-carboxamide]
0.006 to 0.1 | CC1=NN(c2ccccc2)C(=O)C1C(=O)Nc1cccc(CC(F)(F)F)c1 (stereo not shown) [compound 161, 3-methyl-5-oxo-1-phenyl-N-(3-(2,2,2-trifluoroethyl)phenyl)-4,5-dihydro-1H-pyrazole-4-carboxamide]
0.006 to 0.1 | CC1=NN(c2ccc(C(F)(F)F)cc2)C(=O)C1C(=O)Nc1cccc(-c2ccco2)c1 (stereo not shown) [compound 162, N-(3-(furan-2-yl)phenyl)-3-methyl-5-oxo-1-(4-(trifluoromethyl)phenyl)-4,5-dihydro-1H-pyrazole-4-carboxamide]
0.006 to 0.1 | CC1=NN(c2cccc(C(=O)O)c2)C(=O)C1C(=O)Nc1cccc(-c2ncco2)c1 (stereo not shown) [compound 170]
0.006 to 0.1 | CC1=NN(c2cccc(C(=O)O)c2)C(=O)C1C(=O)Nc1cccc(-c2ncc[nH]2)c1 (stereo not shown) [compound 172]
0.1 to 1 | CC1=NN(c2ccc(S(=O)(=O)N(C)C)cc2)C(=O)C1C(=O)Nc1cccc(-c2ncc[nH]2)c1 (stereo not shown) [compound 173, N-(3-(1H-imidazol-2-yl)phenyl)-1-(4-(N,N-dimethylsulfamoyl)phenyl)-3-methyl-5-oxo-4,5-dihydro-1H-pyrazole-4-carboxamide]
0.1 to 1 | CC1=NN(c2ccccc2)C(=O)C1C(=O)Nc1cccc(-c2nnc[nH]2)c1 (stereo not shown) [compound 174]
1 to 100 | CCNC(c1cccc(NC(=O)C2C(=O)N(c3ccccc3)N=C2C)c1)C(F)(F)F (stereo not shown) [compound 176]
1 to 100 | N#Cc1ccc(OCCNC(=O)c2cccc(C(O)CO)c2)cc1 (stereo not shown) [compound 179]
1 to 100 | CC1=NN(c2ccccc2)C(=O)C1C(=O)Nc1ccccc1 (stereo not shown) [compound 182, 3-methyl-5-oxo-N,1-diphenyl-4,5-dihydro-1H-pyrazole-4-carboxamide]
1 to 100 | CC1=NN(c2ccccc2)C(=O)C1C(=O)Nc1cccc2ccccc12 (stereo not shown) [compound 185, 3-methyl-N-(naphthalen-1-yl)-5-oxo-1-phenyl-4,5-dihydro-1H-pyrazole-4-carboxamide]
1 to 100 | COc1ccc(NC(=O)C2C(=O)N(c3ccccc3)N=C2C)cc1 (stereo not shown) [compound 188, N-(4-methoxyphenyl)-3-methyl-5-oxo-1-phenyl-4,5-dihydro-1H-pyrazole-4-carboxamide]
1 to 100 | CC1=NN(c2ccccc2)C(=O)C1C(=O)Nc1ccc(F)cc1 (stereo not shown) [compound 189, N-(4-fluorophenyl)-3-methyl-5-oxo-1-phenyl-4,5-dihydro-1H-pyrazole-4-carboxamide]
1 to 100 | CC1=NN(c2ccccc2)C(=O)C1C(=O)Nc1cccnc1 (stereo not shown) [compound 191, 3-methyl-5-oxo-1-phenyl-N-(pyridin-3-yl)-4,5-dihydro-1H-pyrazole-4-carboxamide]
0.1 to 1 | CC1=NN(c2ccccc2)C(=O)C1C(=O)Nc1ccc2c(c1)CCC2 (stereo not shown) [compound 209, N-(2,3-dihydro-1H-inden-5-yl)-3-methyl-5-oxo-1-phenyl-4,5-dihydro-1H-pyrazole-4-carboxamide]
0.006 to 0.1 | CC1=NN(c2ccccc2)C(=O)C1C(=O)Nc1cccc(Cl)c1 (stereo not shown) [compound 210, N-(3-chlorophenyl)-3-methyl-5-oxo-1-phenyl-4,5-dihydro-1H-pyrazole-4-carboxamide]
0.006 to 0.1 | COc1cccc(NC(=O)C2C(=O)N(c3ccccc3)N=C2C)c1 (stereo not shown) [compound 211, N-(3-methoxyphenyl)-3-methyl-5-oxo-1-phenyl-4,5-dihydro-1H-pyrazole-4-carboxamide]
0.006 to 0.1 | CC1=NN(c2ccncc2)C(=O)C1C(=O)Nc1cccc(-c2cnccn2)c1 (stereo not shown) [compound 232]
